Test results from the supplement of paper PMC10307832.

Experiments:
Assay in all cases: relative viability (nuclei count vs DMSO), 5 days (fraction); higher = more cells survive
Pictilisib + Alpelisib = compound: CS(=O)(=O)N1CCN(Cc2cc3nc(-c4cccc5[nH]ncc45)nc(N4CCOCC4)c3s2)CC1 [Pictilisib] + Cc1nc(NC(=O)N2CCC[C@H]2C(N)=O)sc1-c1ccnc(C(C)(C)C(F)(F)F)c1 [Alpelisib] (partner 2 µM)
How it was run: (§1)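 Relative viability was taken as the ratio of nuclei in treated wells to nuclei in vehicle wells. Lung cancer cell lines in 1536-well plates received compounds by pin tool one day after seeding, either one drug alone or a fixed anchor-drug dose plus five library-drug doses (not always all listed) in √10 steps. Nuclei were counted on 4× images after 5 days of treatment, and values are medians of duplicate plates.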

MK-2206 + Vorinostat = compound: NC1(c2ccc(-c3nc4ccn5c(=O)[nH]nc5c4cc3-c3ccccc3)cc2)CCC1 [MK-2206] + O=C(CCCCCCC(=O)Nc1ccccc1)NO [Vorinostat] (partner 1 µM)
How it was run: as §1

MK-2206 + Pemetrexed = compound: NC1(c2ccc(-c3nc4ccn5c(=O)[nH]nc5c4cc3-c3ccccc3)cc2)CCC1 [MK-2206] + Nc1nc2[nH]cc(CCc3ccc(C(=O)N[C@@H](CCC(=O)O)C(=O)O)cc3)c2c(=O)[nH]1 [Pemetrexed] (partner 0.2 µM)
How it was run: as §1

Pictilisib + Palbociclib = compound: CS(=O)(=O)N1CCN(Cc2cc3nc(-c4cccc5[nH]ncc45)nc(N4CCOCC4)c3s2)CC1 [Pictilisib] + CC(=O)c1c(C)c2cnc(Nc3ccc(N4CCNCC4)cn3)nc2n(C2CCCC2)c1=O [Palbociclib] (partner 0.5 µM)
How it was run: as §1

Pictilisib + Linsitinib = compound: CS(=O)(=O)N1CCN(Cc2cc3nc(-c4cccc5[nH]ncc45)nc(N4CCOCC4)c3s2)CC1 [Pictilisib] + C[C@]1(O)C[C@@H](c2nc(-c3ccc4ccc(-c5ccccc5)nc4c3)c3c(N)nccn32)C1 [Linsitinib] (partner 1 µM)
How it was run: as §1

EPLC-272H
relative viability (Pictilisib + Alpelisib; first compound 0.02 µM): 1.06 | relative viability (Pictilisib + Alpelisib; first compound 0.06325 µM): 0.877 | relative viability (Pictilisib + Alpelisib; first compound 0.6325 µM): 0.826 | relative viability (Pictilisib + Alpelisib; first compound 2 µM): 0.738 | relative viability (MK-2206 + Vorinostat; first compound 0.01 µM): 0.513 | relative viability (MK-2206 + Vorinostat; first compound 0.03162 µM): 0.401 | relative viability (MK-2206 + Vorinostat; first compound 0.3162 µM): 0.482 | relative viability (MK-2206 + Vorinostat; first compound 1 µM): 0.435 | relative viability (MK-2206 + Pemetrexed; first compound 0.01 µM): 0.329 | relative viability (MK-2206 + Pemetrexed; first compound 0.03162 µM): 0.319 | relative viability (MK-2206 + Pemetrexed; first compound 0.3162 µM): 0.3 | relative viability (MK-2206 + Pemetrexed; first compound 1 µM): 0.354 | relative viability (Pictilisib + Palbociclib; first compound 0.02 µM): 0.348 | relative viability (Pictilisib + Palbociclib; first compound 0.06325 µM): 0.298 | relative viability (Pictilisib + Palbociclib; first compound 0.6325 µM): 0.317 | relative viability (Pictilisib + Palbociclib; first compound 2 µM): 0.243 | relative viability (Pictilisib + Linsitinib; first compound 0.02 µM): 1.2 | relative viability (Pictilisib + Linsitinib; first compound 0.06325 µM): 1.19 | relative viability (Pictilisib + Linsitinib; first compound 0.6325 µM): 0.875 | relative viability (Pictilisib + Linsitinib; first compound 2 µM): 0.865

LK-2
relative viability (Pictilisib + Alpelisib; first compound 0.02 µM): 1.16 | relative viability (Pictilisib + Alpelisib; first compound 0.06325 µM): 1.06 | relative viability (Pictilisib + Alpelisib; first compound 0.6325 µM): 0.925 | relative viability (Pictilisib + Alpelisib; first compound 2 µM): 0.905 | relative viability (MK-2206 + Vorinostat; first compound 0.01 µM): 0.26 | relative viability (MK-2206 + Vorinostat; first compound 0.03162 µM): 0.287 | relative viability (MK-2206 + Vorinostat; first compound 0.3162 µM): 0.334 | relative viability (MK-2206 + Vorinostat; first compound 1 µM): 0.221 | relative viability (MK-2206 + Pemetrexed; first compound 0.01 µM): 0.265 | relative viability (MK-2206 + Pemetrexed; first compound 0.03162 µM): 0.309 | relative viability (MK-2206 + Pemetrexed; first compound 0.3162 µM): 0.246 | relative viability (MK-2206 + Pemetrexed; first compound 1 µM): 0.252 | relative viability (Pictilisib + Palbociclib; first compound 0.02 µM): 0.588 | relative viability (Pictilisib + Palbociclib; first compound 0.06325 µM): 0.673 | relative viability (Pictilisib + Palbociclib; first compound 0.6325 µM): 0.354 | relative viability (Pictilisib + Palbociclib; first compound 2 µM): 0.259 | relative viability (Pictilisib + Linsitinib; first compound 0.02 µM): 0.609 | relative viability (Pictilisib + Linsitinib; first compound 0.06325 µM): 0.537 | relative viability (Pictilisib + Linsitinib; first compound 0.6325 µM): 0.526 | relative viability (Pictilisib + Linsitinib; first compound 2 µM): 0.426

CAL-12T
relative viability (Pictilisib + Alpelisib; first compound 0.02 µM): 1.32 | relative viability (Pictilisib + Alpelisib; first compound 0.06325 µM): 1.12 | relative viability (Pictilisib + Alpelisib; first compound 0.6325 µM): 1.19 | relative viability (Pictilisib + Alpelisib; first compound 2 µM): 0.883 | relative viability (MK-2206 + Vorinostat; first compound 0.01 µM): 0.672 | relative viability (MK-2206 + Vorinostat; first compound 0.03162 µM): 0.8 | relative viability (MK-2206 + Vorinostat; first compound 0.3162 µM): 0.748 | relative viability (MK-2206 + Vorinostat; first compound 1 µM): 0.768 | relative viability (MK-2206 + Pemetrexed; first compound 0.01 µM): 1.12 | relative viability (MK-2206 + Pemetrexed; first compound 0.03162 µM): 1.07 | relative viability (MK-2206 + Pemetrexed; first compound 0.3162 µM): 1.28 | relative viability (MK-2206 + Pemetrexed; first compound 1 µM): 1.06 | relative viability (Pictilisib + Palbociclib; first compound 0.02 µM): 0.385 | relative viability (Pictilisib + Palbociclib; first compound 0.06325 µM): 0.604 | relative viability (Pictilisib + Palbociclib; first compound 0.6325 µM): 0.457 | relative viability (Pictilisib + Palbociclib; first compound 2 µM): 0.167 | relative viability (Pictilisib + Linsitinib; first compound 0.02 µM): 0.986 | relative viability (Pictilisib + Linsitinib; first compound 0.06325 µM): 0.732 | relative viability (Pictilisib + Linsitinib; first compound 0.6325 µM): 0.807 | relative viability (Pictilisib + Linsitinib; first compound 2 µM): 0.424

NCI-H322M
relative viability (Pictilisib + Alpelisib; first compound 0.02 µM): 0.845 | relative viability (Pictilisib + Alpelisib; first compound 0.06325 µM): 0.8 | relative viability (Pictilisib + Alpelisib; first compound 0.6325 µM): 0.872 | relative viability (Pictilisib + Alpelisib; first compound 2 µM): 0.684 | relative viability (MK-2206 + Vorinostat; first compound 0.01 µM): 0.844 | relative viability (MK-2206 + Vorinostat; first compound 0.03162 µM): 0.936 | relative viability (MK-2206 + Vorinostat; first compound 0.3162 µM): 0.944 | relative viability (MK-2206 + Vorinostat; first compound 1 µM): 0.977 | relative viability (MK-2206 + Pemetrexed; first compound 0.01 µM): 0.64 | relative viability (MK-2206 + Pemetrexed; first compound 0.03162 µM): 0.634 | relative viability (MK-2206 + Pemetrexed; first compound 0.3162 µM): 0.666 | relative viability (MK-2206 + Pemetrexed; first compound 1 µM): 0.679 | relative viability (Pictilisib + Palbociclib; first compound 0.02 µM): 0.496 | relative viability (Pictilisib + Palbociclib; first compound 0.06325 µM): 0.495 | relative viability (Pictilisib + Palbociclib; first compound 0.6325 µM): 0.448 | relative viability (Pictilisib + Palbociclib; first compound 2 µM): 0.415 | relative viability (Pictilisib + Linsitinib; first compound 0.02 µM): 0.82 | relative viability (Pictilisib + Linsitinib; first compound 0.06325 µM): 0.837 | relative viability (Pictilisib + Linsitinib; first compound 0.6325 µM): 0.623 | relative viability (Pictilisib + Linsitinib; first compound 2 µM): 0.656

NCI-H1650
relative viability (MK-2206 + Vorinostat; first compound 0.01 µM): 0.532 | relative viability (MK-2206 + Vorinostat; first compound 0.03162 µM): 0.612 | relative viability (MK-2206 + Vorinostat; first compound 0.3162 µM): 0.656 | relative viability (MK-2206 + Vorinostat; first compound 1 µM): 0.519 | relative viability (MK-2206 + Pemetrexed; first compound 0.01 µM): 0.3 | relative viability (MK-2206 + Pemetrexed; first compound 0.03162 µM): 0.379 | relative viability (MK-2206 + Pemetrexed; first compound 0.3162 µM): 0.319 | relative viability (MK-2206 + Pemetrexed; first compound 1 µM): 0.347 | relative viability (Pictilisib + Palbociclib; first compound 0.02 µM): 0.381 | relative viability (Pictilisib + Palbociclib; first compound 0.06325 µM): 0.334 | relative viability (Pictilisib + Palbociclib; first compound 0.6325 µM): 0.223 | relative viability (Pictilisib + Palbociclib; first compound 2 µM): 0.193

NCI-H2342
relative viability (MK-2206 + Vorinostat; first compound 0.01 µM): 0.841 | relative viability (MK-2206 + Vorinostat; first compound 0.03162 µM): 0.802 | relative viability (MK-2206 + Vorinostat; first compound 0.3162 µM): 0.821 | relative viability (MK-2206 + Vorinostat; first compound 1 µM): 0.733 | relative viability (MK-2206 + Pemetrexed; first compound 0.01 µM): 0.663 | relative viability (MK-2206 + Pemetrexed; first compound 0.03162 µM): 0.782 | relative viability (MK-2206 + Pemetrexed; first compound 0.3162 µM): 0.675 | relative viability (MK-2206 + Pemetrexed; first compound 1 µM): 0.738 | relative viability (Pictilisib + Palbociclib; first compound 0.02 µM): 0.515 | relative viability (Pictilisib + Palbociclib; first compound 0.06325 µM): 0.507 | relative viability (Pictilisib + Palbociclib; first compound 0.6325 µM): 0.444 | relative viability (Pictilisib + Palbociclib; first compound 2 µM): 0.403

SW 1573
relative viability (Pictilisib + Alpelisib; first compound 0.02 µM): 0.891 | relative viability (Pictilisib + Alpelisib; first compound 0.06325 µM): 0.766 | relative viability (Pictilisib + Alpelisib; first compound 0.6325 µM): 0.658 | relative viability (Pictilisib + Alpelisib; first compound 2 µM): 0.532 | relative viability (MK-2206 + Vorinostat; first compound 0.01 µM): 0.665 | relative viability (MK-2206 + Vorinostat; first compound 0.03162 µM): 0.94 | relative viability (MK-2206 + Vorinostat; first compound 0.3162 µM): 0.449 | relative viability (MK-2206 + Vorinostat; first compound 1 µM): 0.6 | relative viability (MK-2206 + Pemetrexed; first compound 0.01 µM): 0.782 | relative viability (MK-2206 + Pemetrexed; first compound 0.03162 µM): 0.793 | relative viability (MK-2206 + Pemetrexed; first compound 0.3162 µM): 0.726 | relative viability (MK-2206 + Pemetrexed; first compound 1 µM): 0.713 | relative viability (Pictilisib + Palbociclib; first compound 0.02 µM): 0.417 | relative viability (Pictilisib + Palbociclib; first compound 0.06325 µM): 0.345 | relative viability (Pictilisib + Palbociclib; first compound 0.6325 µM): 0.207 | relative viability (Pictilisib + Palbociclib; first compound 2 µM): 0.191 | relative viability (Pictilisib + Linsitinib; first compound 0.02 µM): 0.844 | relative viability (Pictilisib + Linsitinib; first compound 0.06325 µM): 0.709 | relative viability (Pictilisib + Linsitinib; first compound 0.6325 µM): 0.618 | relative viability (Pictilisib + Linsitinib; first compound 2 µM): 0.41

NCI-H2405
relative viability (Pictilisib + Alpelisib; first compound 0.02 µM): 0.957 | relative viability (Pictilisib + Alpelisib; first compound 0.06325 µM): 0.785 | relative viability (Pictilisib + Alpelisib; first compound 0.6325 µM): 0.732 | relative viability (Pictilisib + Alpelisib; first compound 2 µM): 0.424 | relative viability (MK-2206 + Vorinostat; first compound 0.01 µM): 1.04 | relative viability (MK-2206 + Vorinostat; first compound 0.03162 µM): 1.09 | relative viability (MK-2206 + Vorinostat; first compound 0.3162 µM): 1.07 | relative viability (MK-2206 + Vorinostat; first compound 1 µM): 0.894 | relative viability (MK-2206 + Pemetrexed; first compound 0.01 µM): 1.01 | relative viability (MK-2206 + Pemetrexed; first compound 0.03162 µM): 1.07 | relative viability (MK-2206 + Pemetrexed; first compound 0.3162 µM): 1.02 | relative viability (MK-2206 + Pemetrexed; first compound 1 µM): 0.978 | relative viability (Pictilisib + Palbociclib; first compound 0.02 µM): 0.579 | relative viability (Pictilisib + Palbociclib; first compound 0.06325 µM): 0.536 | relative viability (Pictilisib + Palbociclib; first compound 0.6325 µM): 0.474 | relative viability (Pictilisib + Palbociclib; first compound 2 µM): 0.374 | relative viability (Pictilisib + Linsitinib; first compound 0.02 µM): 1.05 | relative viability (Pictilisib + Linsitinib; first compound 0.06325 µM): 0.96 | relative viability (Pictilisib + Linsitinib; first compound 0.6325 µM): 0.7 | relative viability (Pictilisib + Linsitinib; first compound 2 µM): 0.5
